This note sets out measurements from US20250213701A1, “MEDICAMENT FOR TREATING HUMAN TUMOR BASED ON ERF3A-TARGETING PROTEOLYSIS MECHANISM” (SUZHOU DEGEN BIO-MEDICAL CO., LTD., priority 2022, published 2025).

Holding throughout (type): cell-based
In one test the test system is PANC-1 cells. Nature of the test: Anti-proliferative toxicity of C63 in tumor cell lines (CCK8): PANC-1. Conditions: Homo sapiens, 72 h, 3 days, read-out: Inhibition rate. The protocol:
Example 83: Detection of Anti-Proliferative Toxicity of C63 in Some Tumor Cell Lines
PANC-1 cells (purchased from the Cell Bank of the Chinese Academy of Sciences, Cat. No. SCSP-535) were subcultured in a culture medium (DMEM medium+1% penicillin-streptomycin dual-antibiotic solution+10% fetal bovine serum) in an incubator at 5% carbon dioxide and 37° C.
PANC-1 cells were seeded at 5000 cells/well (90 μL) on a 96-well plate and cultured for 24 h.
10 mM compound stock solutions were prepared in DMSO.
The compound stock solution was diluted with DMSO to give DMSO solutions 1-9 at concentrations of 0 μM, 2500 μM, 500 μM, 100 μM, 20 μM, 4 μM, 0.8 μM, 0.16 μM, and 0.032 μM.
2 μL of each of solutions 1-9 was added to 98 μL of the medium to give mixed solutions 11-19 of the compound and the medium.
10 μL of each of solutions 11-19 was added to the above cell seed solution to give a total volume of 100 μL (90 μL+10 μL).
The concentrations of the compound in the wells were 0 μM, 5.0 μM, 1.0 μM, 0.2 μM, 0.04 μM, 0.008 μM, 0.0016 μM, 0.00032 μM, and 0.000064 μM. All concentrations were in triplicate.
After the above-treated cells were cultured for 3 days, 10 μL of the CCK8 solution (DOJINDO, Cat. No. PF725) was added to each well. The plate was incubated in an incubator at 37° C. for 1-4 h and then detected on a microplate reader for the reading at 450 nm.

Test [1] addresses T1, SRD5A3 (Homo sapiens, UniProt Q9H8P0).
T1 construct: The downregulation of SRD5A3 and GSPT1 (eRF3a) proteins in PC-3 and HepG2 cells by C59; endogenous in cells; host or cells: 22Rv1, PC-3, HepG2
T1 sequence (Q9H8P0 1-318): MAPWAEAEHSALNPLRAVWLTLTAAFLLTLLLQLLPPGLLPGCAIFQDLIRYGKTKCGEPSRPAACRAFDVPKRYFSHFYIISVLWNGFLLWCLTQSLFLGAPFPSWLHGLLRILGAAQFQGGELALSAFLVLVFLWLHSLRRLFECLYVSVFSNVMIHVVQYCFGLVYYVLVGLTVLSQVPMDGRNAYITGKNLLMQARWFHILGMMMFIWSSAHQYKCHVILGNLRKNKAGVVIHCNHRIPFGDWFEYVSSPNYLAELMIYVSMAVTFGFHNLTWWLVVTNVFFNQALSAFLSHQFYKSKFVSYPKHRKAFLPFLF
Nature of the test: Western blot assay in HepG2 cells: SRD5A3. The settings on record: different concentrations at 24 h (FIG. 10). The source says:
(§1) Example 84: Western Blot Assay of Compound C59 in 22Rv1, PC-3, and HepG2 Cells
(§2) (1) Materials: 22Rv1, PC-3, and HepG2 cell, anti-SRD5A1 antibody (ab167606), anti-SRD5A2 antibody (ab124877), anti-SRD5A3 antibody (PA5-107029), anti-androgen receptor (AR) antibody (CST, No. 5153), anti-GSPT1 antibody (Abcam, ab234433), anti-GADPH antibody (CST, No. 5174), anti-c-Myc antibody (CST, No. 8583), anti-α-tublin antibody (CST, No. 2125), anti-rabbit IgG, HRP-linked antibody (CST, No. 7074), electrophoresis device and membrane transfer device (LIUYI, BEIJING; DYCZ-24DN)
(§3) Cell seeding: 22Rv1 (Cell Bank of the Chinese Academy of Sciences, TCHu100), PC-3 (Cell Bank of the Chinese Academy of Sciences, SCSP-532) and HepG2 cells (Cell Bank of the Chinese Academy of Sciences, TCHu72) were subcultured and trypsinized to prepare 6×10^5 cells/mL suspensions, seeded on 6-well plates (3 mL/well), and cultured overnight in a cell incubator at 5% CO2 and 37° C. […]
(§4) Protein quantification: The protein was quantified using a BCA protein quantification kit. […]
(§5) Western immunoblot assay (or Western blot, WB): SDS-PAGE gel at a proper concentration was prepared according to the molecular weight of the target protein: for example, the concentration of the separation gel was 8% and the concentration of the stacking gel was 5%. The loading volume was adjusted according to the protein quantification results. […]
A general note: Immunoblotting shows a protein as a band on a membrane.

The next test addresses T2, GSPT1 (eRF3a) (Homo sapiens, UniProt P15170+Q96SW2).
T2 construct: The downregulation of SRD5A3 and GSPT1 (eRF3a) proteins in PC-3 and HepG2 cells by C59; endogenous in cells; host or cells: 22Rv1, PC-3, HepG2
Nature of the test: Western blot assay in HepG2 cells: GSPT1 (eRF3a). Conditions: different concentrations at 24 h (FIG. 10).
From the text: as §1, §2, §3, §4, §5

Test [2] addresses T1, SRD5A3. Description: Western blot assay in 22Rv1 cells: SRD5A3. Conditions: different concentrations at 24 h, and 3 nM at different time points (FIGS. 7 and 8).
From the text: as §1, §2, §3, §4, §5

T2 sequence (P15170 1-637 isoform P15170-3): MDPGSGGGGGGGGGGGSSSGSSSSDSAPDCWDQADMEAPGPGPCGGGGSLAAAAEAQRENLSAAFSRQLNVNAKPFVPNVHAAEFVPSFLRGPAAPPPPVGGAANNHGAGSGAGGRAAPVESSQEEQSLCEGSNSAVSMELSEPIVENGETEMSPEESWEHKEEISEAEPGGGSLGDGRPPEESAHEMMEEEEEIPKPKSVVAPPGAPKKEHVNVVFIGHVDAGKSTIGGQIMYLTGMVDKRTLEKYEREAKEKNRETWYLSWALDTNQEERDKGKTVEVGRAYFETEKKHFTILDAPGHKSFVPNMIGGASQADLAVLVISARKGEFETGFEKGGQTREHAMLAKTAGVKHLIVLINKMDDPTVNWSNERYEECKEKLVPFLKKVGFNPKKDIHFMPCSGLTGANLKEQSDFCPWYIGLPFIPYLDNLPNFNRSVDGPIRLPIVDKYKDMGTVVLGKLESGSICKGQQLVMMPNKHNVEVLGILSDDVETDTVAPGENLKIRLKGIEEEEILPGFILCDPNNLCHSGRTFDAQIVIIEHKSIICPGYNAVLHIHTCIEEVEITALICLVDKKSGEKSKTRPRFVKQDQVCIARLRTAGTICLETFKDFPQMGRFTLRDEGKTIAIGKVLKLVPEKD
T2 sequence (Q96SW2 whole entry): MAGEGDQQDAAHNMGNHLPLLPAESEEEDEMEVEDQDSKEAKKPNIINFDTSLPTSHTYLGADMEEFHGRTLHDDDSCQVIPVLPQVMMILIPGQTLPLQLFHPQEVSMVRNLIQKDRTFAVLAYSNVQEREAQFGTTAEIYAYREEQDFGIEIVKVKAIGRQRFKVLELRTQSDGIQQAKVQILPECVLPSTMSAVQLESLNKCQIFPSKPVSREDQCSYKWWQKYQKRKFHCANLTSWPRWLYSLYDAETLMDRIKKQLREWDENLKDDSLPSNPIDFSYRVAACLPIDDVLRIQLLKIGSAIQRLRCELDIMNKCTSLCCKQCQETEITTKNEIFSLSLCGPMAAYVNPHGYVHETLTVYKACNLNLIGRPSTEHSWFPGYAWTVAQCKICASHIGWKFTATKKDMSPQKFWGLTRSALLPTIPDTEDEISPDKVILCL
T2 sequence (Q16531 whole entry partner): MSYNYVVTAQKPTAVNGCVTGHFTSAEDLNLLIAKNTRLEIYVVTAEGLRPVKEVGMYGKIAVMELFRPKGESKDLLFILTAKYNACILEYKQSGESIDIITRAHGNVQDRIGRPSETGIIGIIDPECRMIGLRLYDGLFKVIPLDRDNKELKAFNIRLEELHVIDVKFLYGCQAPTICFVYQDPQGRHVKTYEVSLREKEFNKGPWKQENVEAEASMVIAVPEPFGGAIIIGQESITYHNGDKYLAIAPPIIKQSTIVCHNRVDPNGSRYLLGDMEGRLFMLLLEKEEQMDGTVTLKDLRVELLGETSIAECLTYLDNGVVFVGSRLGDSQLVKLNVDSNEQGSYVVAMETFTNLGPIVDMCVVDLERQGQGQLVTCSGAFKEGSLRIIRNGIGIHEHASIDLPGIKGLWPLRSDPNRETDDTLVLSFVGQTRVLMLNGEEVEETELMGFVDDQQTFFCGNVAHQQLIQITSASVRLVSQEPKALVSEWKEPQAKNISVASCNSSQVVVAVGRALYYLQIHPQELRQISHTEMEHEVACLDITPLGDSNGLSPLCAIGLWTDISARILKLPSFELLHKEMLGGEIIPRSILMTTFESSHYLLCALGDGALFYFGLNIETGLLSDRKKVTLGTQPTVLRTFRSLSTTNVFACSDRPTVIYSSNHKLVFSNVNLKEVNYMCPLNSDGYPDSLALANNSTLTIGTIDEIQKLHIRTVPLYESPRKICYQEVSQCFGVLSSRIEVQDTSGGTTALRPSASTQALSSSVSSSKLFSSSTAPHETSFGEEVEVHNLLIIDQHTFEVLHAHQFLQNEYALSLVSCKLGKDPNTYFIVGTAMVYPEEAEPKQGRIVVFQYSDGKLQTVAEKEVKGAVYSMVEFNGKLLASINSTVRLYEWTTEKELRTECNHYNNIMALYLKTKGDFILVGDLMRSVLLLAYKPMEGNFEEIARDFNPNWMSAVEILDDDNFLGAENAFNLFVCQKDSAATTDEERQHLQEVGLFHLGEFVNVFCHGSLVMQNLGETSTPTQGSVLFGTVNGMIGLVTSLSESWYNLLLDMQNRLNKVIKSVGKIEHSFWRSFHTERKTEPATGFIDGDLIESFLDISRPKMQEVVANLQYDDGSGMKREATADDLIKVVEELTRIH

For orientation: inhibition means the percentage by which the read-out fell short of the control. Take `C[C@]12C=CC(=O)N[C@@H]1CC[C@@H]1[C@@H]2CC[C@]2(C)[C@@H](C(=O)Nc3cccc(N[C@@H]4CCC[C@@H](Nc5cccc6c5C(=O)N([C@H]5CCC(=O)NC5=O)C6=O)C4)c3)CC[C@@H]12` [C63, N-(3-(N—(N-(4-(2-(3S-(2,6-dioxopiperidine))-isoindole-1,3-dione))-1R,3R-cyclohexanediamine))phenyl)-3-oxo-4-aza-5α-androst-1-ene-17β-carboxamide]: the inhibition at 64 pM with PANC-1 cells (0.000064 μM) was 21.2%. In addition, the inhibition at 0.00032 µM with PANC-1 cells (0.000320 μM) is 12.8%. Moreover, the inhibition at 0.0016 µM in the test with PANC-1 cells (0.001600 μM) was determined as 25.3%. In addition, the inhibition at 0.008 µM in the test with PANC-1 cells (0.008000 μM) came to 31.6%. For the same compound, the inhibition at 0.04 µM in the test on PANC-1 cells (0.040000 μM) is 36.3%. For the same compound, in the test with PANC-1 cells (0.200000 μM), the inhibition at 0.2 µM is 42.1%. Also, the inhibition at 1 µM with PANC-1 cells (1.000000 μM) was determined as 48.7%. For the same compound, in the test with PANC-1 cells (5.000000 μM), the inhibition at 5 µM amounted to 52.8%.
As for `C[C@]12C=CC(=O)N[C@@H]1CC[C@@H]1[C@@H]2CC[C@]2(C)[C@@H](C(=O)Nc3cccc(N[C@@H]4CCC[C@@H](Nc5cccc6c5C(=O)N(C5CCC(=O)NC5=O)C6=O)C4)c3)CC[C@@H]12` (stereo partly drawn) [C59, N-(3-(N—(N-(4-(2-(3-(2,6-dioxopiperidine))-isoindole-1,3-dione))-1R,3R-cyclohexanediamine))phenyl)-3-oxo-4-aza-5α-androst-1-ene-17β-carboxamide], the “downregulation of SRD5A3 protein (Western blot)” value at SRD5A3 [1] and on SRD5A3 [2] was “downregulation” throughout. Moreover, the “downregulation of GSPT1 (eRF3a) protein (Western blot)” value at GSPT1 (eRF3a) is recorded as “downregulation”.
